Data reported in patent US20250368628A1, “METHODS AND COMPOUNDS FOR MODULATING INHERITED GENETIC DISEASES” (Design Therapeutics, Inc., priority 2022, published 2025).
Read-outs that look alike come from different tables or passages of the source.

Assays:
F35T cells = assay: Foci reduction in FECD (CAG10-Cy3 FISH, foci per nucleus); assay type: cell-based
Method in brief: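 Foci per nucleus were counted by imaging after overnight CAG10-Cy3 FISH at 37 °C (30% formamide, 2×SSC) with DAPI counterstain, on PFA-fixed, ethanol-permeabilized F35T cells. The cells, seeded at 5000 per well in supplemented Opti-MEM, had received 8-point compound dilutions for 48 h at 37 °C.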

[1] = test system: Myotonic Dystrophy 1 affected patient fibroblasts (Coriel GM04602; 1600 CTG repeats); assay: DM1 foci reduction assay (EC50 assay; CAG10-Cy3 FISH, foci per nucleus); assay type: cell-based
Method in brief: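 Foci per nucleus counted by 20× imaging of 4 areas per well, after overnight FISH with 5 nM CAG10-Cy3 and DAPI staining of fixed, permeabilized cells. DM1 fibroblasts (GM04602, 1600 CTG) were dosed 48 h at 37 °C, 8 points, 3-fold dilutions, 3 μM top concentration.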

[2] = F35T cells, 48 h treatment, foci per nucleus; read-out: FECD EC50, 48 h
[3] = Homo sapiens, Fibroblast; DM1 patient fibroblasts, 48 h treatment, foci per nucleus; read-out: DM1 EC50, 48 h

Compound | EC50 (F35T cells; [2]) | EC50 [1, 3] | EC50 (F35T cells; F35T cells, foci per nucleus, 48 h treatment; read-out: FECD EC50, 48 h) | EC50 ([1]; Homo sapiens, Fibroblast; DM1 patient fibroblasts, foci per nucleus, 48 h treatment; read-out: DM1 EC50, 48 h)
Cn1cc(NC(=O)c2nccn2C)cc1C(=O)NCCC(=O)Nc1cn(C)c(C(=O)Nc2cc(C(=O)NCCCC(=O)Nc3cn(C)c(C(=O)NCCC(=O)Nc4cc(C(=O)Nc5cn(C)c(C(=O)NCCC(=O)N6CCC(C#CC#CC7CCNCC7)CC6)n5)n(C)c4)n3)n(CCOCCN)c2)n1 [Compound B-297] | 100 to 500 nM | > 1000 nM | – | –
CN(C)Cc1ncc(C2CN(C(=O)CCNC(=O)c3nc(NC(=O)c4cc(NC(=O)CCNC(=O)c5nc(NC(=O)CCCNC(=O)c6cc(NC(=O)c7nc(NC(=O)CCNC(=O)c8cc(NC(=O)c9nccn9C)cn8C)cn7C)cn6C)cn5C)cn4C)cn3C)C2)[nH]1 [Compound B-69] | 100 to 500 nM | 100 to 500 nM | – | –
CCCNC(=O)CCNC(=O)c1nc(NC(=O)c2cc(NC(=O)CCNC(=O)c3nc(NC(=O)CCCNC(=O)c4cc(NC(=O)c5nc(NC(=O)CCNC(=O)c6cc(NC(=O)c7nccn7C)cn6C)cn5C)cn4CCOCCN)cn3C)cn2C)cn1C [Compound B-295] | 100 to 500 nM | 100 to 500 nM | – | –
Cn1cc(NC(=O)c2nc(NC(=O)CCNC(=O)c3cc(NC(=O)c4nccn4C)cn3C)cn2C)cc1C(=O)NCCCC(=O)Nc1cn(C)c(C(=O)NCCC(=O)Nc2cc(C(=O)Nc3cn(C)c(C(=O)NCCCN(CC#Cc4ccc(C(=O)O)cc4)CCCN)n3)n(C)c2)n1 [Compound B-384] | 100 to 500 nM | 100 to 500 nM | – | –
CC(=O)NCCOCCCn1cc(NC(=O)c2nc(NC(=O)CCNC(=O)c3cc(NC(=O)c4nccn4C)cn3C)cn2C)cc1C(=O)NCCCC(=O)Nc1cn(C)c(C(=O)NCCC(=O)Nc2cc(C(=O)Nc3cn(C)c(C(=O)NCCC(=O)N4CCC(C#CC#CC5CCNCC5)CC4)n3)n(C)c2)n1 [Compound B-306] | < 100 nM | < 100 nM | – | –
CCCNC(=O)CCNC(=O)c1nc(NC(=O)c2cc(NC(=O)CCNC(=O)c3nc(NC(=O)CCCNC(=O)c4cc(NC(=O)c5nc(NC(=O)CCNC(=O)c6cc(NC(=O)c7nccn7C)cn6C)cn5C)cn4CCCCNC(C)=O)cn3C)cn2C)cn1C [Compound B-282] | < 100 nM | 100 to 500 nM | – | –
CC(Nc1cc(C(=O)NCCC(=O)Nc2cn(C)c(C(=O)Nc3cc(C(=O)NCCCC(=O)Nc4cn(C)c(C(=O)NCCC(=O)Nc5cc(C(=O)Nc6cn(C)c(C(=O)NCCC(=O)NCCOCCOCCOCCOCCOCCOCCOCCOCCOCCOCCN)n6)n(C)c5)n4)n(C)c3)n2)n(C)c1)c1nccn1C (centres unmarked) [Compound B-81] | > 1000 nM | > 1000 nM | – | –
CN(C)CCCCNC(=O)c1nc(NC(=O)c2cc(NC(=O)CCNC(=O)c3nc(NC(=O)C[C@H](CNC(=O)c4cc(NC(=O)c5nc(NC(=O)CCNC(=O)c6cc(NC(=O)c7nccn7C)cn6C)cn5C)cn4C)NC(=O)c4ccccc4)cn3C)cn2C)cn1C [Compound B-424] | – | – | 100 to 500 nM | 100 to 500 nM
COC(=O)CCCN(CCCC(=O)O)Cc1ncc(C2CN(C(=O)CCNC(=O)c3nc(NC(=O)c4cc(NC(=O)CCNC(=O)c5nc(NC(=O)CCCNC(=O)c6cc(NC(=O)c7nc(NC(=O)CCNC(=O)c8cc(NC(=O)c9nccn9C)cn8C)cn7C)cn6C)cn5C)cn4C)cn3C)C2)[nH]1 [Compound B-370] | > 1000 nM | > 1000 nM | – | –
CC(C)CCNC(=O)CCNC(=O)c1nc(NC(=O)c2cc(NC(=O)CCNC(=O)c3nc(NC(=O)CCCNC(=O)c4cc(NC(=O)c5nc(NC(=O)CCNC(=O)c6cc(NC(=O)c7nccn7C)cn6C)cn5C)cn4C)cn3C)cn2C)cn1C [Compound B-179] | < 100 nM | 100 to 500 nM | – | –
Cn1cc(NC(=O)c2nc(NC(=O)CCNC(=O)c3cc(NC(=O)c4nccn4C)cn3C)cn2C)cc1C(=O)NCCCC(=O)Nc1cn(C)c(C(=O)NCCC(=O)Nc2cc(C(=O)Nc3cn(C)c(C(=O)NCCC(=O)N4CCC(CN5CCNCC5)CC4)n3)n(C)c2)n1 [Compound B-127] | 100 to 500 nM | 100 to 500 nM | – | –
Cn1cc(NC(=O)c2nccn2C)cc1C(=O)NCCC(=O)Nc1cn(C)c(C(=O)Nc2cc(C(=O)NCCCC(=O)Nc3cn(C)c(C(=O)NCCC(=O)Nc4cc(C(=O)Nc5cn(C)c(C(=O)NCCC(=O)N6CCC(C#CC#CC7CCNCC7)CC6)n5)n(C)c4)n3)n(CCCCCCN)c2)n1 [Compound B-256] | 100 to 500 nM | 100 to 500 nM | – | –
Cn1cc(NC(=O)c2nc(NC(=O)CCNC(=O)c3cc(NC(=O)c4nccn4C)cn3C)cn2C)cc1C(=O)NCCCC(=O)Nc1cn(C)c(C(=O)NCCC(=O)Nc2cc(C(=O)Nc3cn(C)c(C(=O)NCCC(=O)N4CCC(C#CC5=CCNCC5)CC4)n3)n(C)c2)n1 [Compound B-346] | < 100 nM | 100 to 500 nM | – | –
CC(=O)N1CCC(C#CC#CC2CCN(CCOCCOCCOCCNC(=O)CCNC(=O)c3nc(NC(=O)c4cc(NC(=O)CCNC(=O)c5nc(NC(=O)CCCNC(=O)c6cc(NC(=O)c7nc(NC(=O)CCNC(=O)c8cc(NC(=O)c9nccn9C)cn8C)cn7C)cn6C)cn5C)cn4C)cn3C)CC2)CC1 [Compound B-121] | 100 to 500 nM | 100 to 500 nM | – | –
CCCN(CCC)C(=O)CCNC(=O)c1nc(NC(=O)c2cc(NC(=O)CCNC(=O)c3nc(NC(=O)CCCNC(=O)c4cc(NC(=O)c5nc(NC(=O)CCNC(=O)c6cc(NC(=O)c7nccn7C)cn6C)cn5C)cn4C)cn3C)cn2C)cn1C [Compound B-50] | < 100 nM | 100 to 500 nM | – | –
CCCNC(=O)CCNC(=O)c1nc(NC(=O)c2cc(NC(=O)CCNC(=O)c3nc(NC(=O)CCCNC(=O)c4cc(NC(=O)c5nc(NC(=O)CCNC(=O)c6cc(NC(=O)c7nccn7C)cn6C)cn5C)cn4CC(C)C)cn3C)cn2C)cn1C [Compound B-403] | < 100 nM | < 100 nM | – | –
CN(C)C(=NCCCNC(=O)CCNC(=O)c1nc(NC(=O)c2cc(NC(=O)CCNC(=O)c3nc(NC(=O)CCCNC(=O)c4cc(NC(=O)c5nc(NC(=O)CCNC(=O)c6cc(NC(=O)c7nccn7C)cn6C)cn5C)cn4C)cn3C)cn2C)cn1C)N(C)C [Compound B-72] | > 1000 nM | 500 to 1000 nM | – | –
COCCOCCOCCOCCN(CCCCCn1cc(NC(=O)c2nc(NC(=O)CCNC(=O)c3cc(NC(=O)c4nccn4C)cn3C)cn2C)cc1C(=O)NCCCC(=O)Nc1cn(C)c(C(=O)NCCC(=O)Nc2cc(C(=O)Nc3cn(C)c(C(=O)NCCC(=O)N4CCC(C#CC#CC5CCNCC5)CC4)n3)n(C)c2)n1)CCOCCOCCOCCOC [Compound B-258] | 500 to 1000 nM | 500 to 1000 nM | – | –
Cn1cc(NC(=O)c2nccn2C)cc1C(=O)NCCC(=O)Nc1cn(C)c(C(=O)Nc2cc(C(=O)NCCCC(=O)Nc3cn(C)c(C(=O)NCCC(=O)Nc4cc(C(=O)Nc5cn(C)c(C(=O)NCCC(=O)N6CCC(C#CC#CC7CCNCC7)CC6)n5)n(C)c4)n3)n(CCCCN)c2)n1 [Compound B-281] | < 100 nM | < 100 nM | – | –
CC(=O)NCCOCCn1cc(NC(=O)c2nc(NC(=O)CCNC(=O)c3cc(NC(=O)c4nccn4C)cn3C)cn2C)cc1C(=O)NCCCC(=O)Nc1cn(C)c(C(=O)NCCC(=O)Nc2cc(C(=O)Nc3cn(C)c(C(=O)NCCC(=O)N4CCC(C#CC#CC5CCN(C(C)=O)CC5)CC4)n3)n(C)c2)n1 [Compound B-299] | < 100 nM | 100 to 500 nM | – | –
CN(CCCNC(=O)c1cccc(C(=O)O)c1)CCCNC(=O)c1nc(NC(=O)c2cc(NC(=O)CCNC(=O)c3nc(NC(=O)CCCNC(=O)c4cc(NC(=O)c5nc(NC(=O)CCNC(=O)c6cc(NC(=O)c7nccn7C)cn6C)cn5C)cn4CCCCCCN=[N+]=[N-])cn3C)cn2C)cn1C [Compound B-233] | 100 to 500 nM | 100 to 500 nM | – | –
CCCNC(=O)CCNC(=O)c1nc(NC(=O)c2cc(NC(=O)CCNC(=O)c3nc(NC(=O)CCCNC(=O)c4cc(NC(=O)c5nc(NC(=O)CCNC(=O)c6cc(NC(=O)c7nccn7C)cn6C)cn5C)cn4CCCCCCN)cn3C)cn2C)cn1C [Compound B-59] | 100 to 500 nM | 100 to 500 nM | – | –
